SMILES strings stand for the structures. pIC50: −log10 of the molar value. Several values for one entry are separate records, joined by “and”; a condition that tells them apart may be missing. Equal entries are not always repeated. Marks after values point to notes of the source that are not given here.

The values below come from article PMC8272148, “Antioxidant Serine-(NSAID) Hybrids with Anti-Inflammatory and Hypolipidemic Potency” (Molecules, 2021).

Experiment [1] relates to Triton WR1339 (tyloxapol)-induced hyperlipidemia. The experiment can be described thus: Triton WR1339 (tyloxapol)-induced hyperlipidemia in rats. Conditions: 150 μmol/kg i.p., rat plasma, 24 h, tyloxapol 200 mg/kg i.p. The experiment is classed as in vivo, Wistar rats. Here is the method:
The examined compounds (0.15 mmol/kg) were administered i.p. one hour later. Blood was taken from the aorta after 24 h, for the determination of plasma total cholesterol, LDL cholesterol and triglyceride concentration, using commercial kits.

A short description of experiment [2]: Interaction with the stable radical DPPH. Particulars: DPPH 200 μM, after 30 min. The protocol: Compounds, dissolved in absolute ethanol, at concentrations of 25–200 μM, were added to an equal volume of an ethanolic solution of DPPH (final concentration 200 μM) at room temperature (22 ± 2 °C). Absorbance (517 nm) was recorded after 30 min [26]. For the calculation of percent interaction, the residual absorbance of DPPH Ai (at a fixed concentration) after its interaction with the examined compounds (at various concentrations) was compared with the control absorbance Ao, without the addition of compounds, following the equation: (1) Percent interaction=100−(Ai/Ao×100)
In general terms: The DPPH test is a chemical assay of radical scavenging.

Experiment [3] concerns carrageenan-induced rat paw edema. Nature of the experiment: Carrageenan-induced rat paw edema. Particulars: ip, 0.15 mmol/kg i.p., 3.5 h after carrageenan, vs controls, read-out: % Edema Reduction. The experiment is classed as in vivo, Wistar rats. The protocol:
An amount of 0.1 mL of an aqueous carrageenan solution (1% w/v) was injected into the hind paw of adult Wistar rats (6 rats were used for each compound). The tested compounds (in water with a few drops of Tween 80) were administered i.p. (0.15 mmol/kg) 5 min before the carrageenan administration. The produced edema, after 3.5 h, was estimated as paw weight increase.
(In general: In the carrageenan paw model, swelling and tenderness develop within hours.)

Experiment [4] has as its system rat hepatic microsomal membrane lipid peroxidation. Nature of the experiment: Inhibition of rat hepatic microsomal membrane lipid peroxidation (ferrous ascorbate induced, TBA reactive material). The experiment is classed as biochemical. Conditions: after 45 min of incubation. The protocol: The peroxidation of the heat-inactivated rat hepatic microsomal fraction was induced by ferrous ascorbate. The studied compounds, in dimethylsulfoxide, were added at concentrations of 1 μM–1 mM. Aliquots were taken from the incubation mixture (37 °C) for 45 min. Lipid peroxidation was assessed spectrophotometrically (535/600 nm) as a 2-thiobarbituric acid reactive material. The incubation mixture and solvents were found not to interfere with the assay.

In experiment [5] the target is T1, soybean lipoxygenase 1-B (Glycine max, UniProt P08170).
T1 sequence (P08170 1-839): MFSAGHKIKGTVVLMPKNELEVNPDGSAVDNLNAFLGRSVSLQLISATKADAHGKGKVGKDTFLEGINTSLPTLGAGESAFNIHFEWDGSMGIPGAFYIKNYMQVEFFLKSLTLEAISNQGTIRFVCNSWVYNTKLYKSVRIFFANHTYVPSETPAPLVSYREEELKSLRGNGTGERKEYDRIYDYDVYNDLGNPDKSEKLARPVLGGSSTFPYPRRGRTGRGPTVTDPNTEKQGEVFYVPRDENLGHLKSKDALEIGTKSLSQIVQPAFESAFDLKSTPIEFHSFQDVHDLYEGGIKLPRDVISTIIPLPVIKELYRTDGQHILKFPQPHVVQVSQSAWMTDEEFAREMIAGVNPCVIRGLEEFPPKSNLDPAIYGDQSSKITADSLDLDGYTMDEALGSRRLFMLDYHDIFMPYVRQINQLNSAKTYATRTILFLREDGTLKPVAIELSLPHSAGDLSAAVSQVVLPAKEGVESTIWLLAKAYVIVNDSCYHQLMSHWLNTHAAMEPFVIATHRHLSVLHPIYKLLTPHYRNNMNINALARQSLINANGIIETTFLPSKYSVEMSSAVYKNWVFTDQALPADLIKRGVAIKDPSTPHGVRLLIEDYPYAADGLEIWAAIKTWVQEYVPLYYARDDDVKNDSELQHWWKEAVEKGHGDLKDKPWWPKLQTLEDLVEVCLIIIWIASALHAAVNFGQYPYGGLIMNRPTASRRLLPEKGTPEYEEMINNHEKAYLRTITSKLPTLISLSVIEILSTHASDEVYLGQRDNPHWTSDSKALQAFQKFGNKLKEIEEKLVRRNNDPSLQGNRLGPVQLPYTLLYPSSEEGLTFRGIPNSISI
Nature of the experiment: In vitro inhibition of soybean lipoxygenase. The experiment is classed as biochemical. Conditions: linoleic acid (100 μM) as substrate, after 7 min of incubation. Here is the method:
The reaction mixture contained the test compounds, dissolved in absolute ethanol (0.1 mL) at various concentrations, or the solvent (control, 0.1 mL), soybean lipoxygenase dissolved in 0.9% NaCl solution (250 u/mL, 0.2 mL) and sodium linoleate (100 μM) in Tris–HCl buffer, pH 9.0 (2.7 mL). The reaction was followed for 7 min at 28 °C, recording the absorbance of a conjugated diene structure at 234 nm, due to the formation of 13-hydroperoxy-linoleic acid. […] For the estimation of the type of inhibition, the above experiments were repeated, using sodium linoleate at 1 mM, which is higher than the saturating substrate concentration.

As usually defined, the pIC50 is the negative decadic logarithm of the IC50, by convention in mol/L. A lower pIC50 goes with a high IC50. On to `CCOC(=O)C(COC(=O)C(C)c1ccc(CC(C)C)cc1)NC(=O)/C=C/c1cc(C(C)(C)C)c(O)c(C(C)(C)C)c1` (stereo not drawn) [Compound 9, (E)-ethyl 2-(3-(3,5-di-tert-butyl-4-hydroxyphenyl)acrylamido)-3-((2-(4-isobutylphenyl)propanoyl)oxy)propanoate], for which the “% Reduction LDL-C (LDL cholesterol)” value in experiment [1] was 70% and 70.1 * %. Moreover, in experiment [1], the “% Reduction TC (total cholesterol)” value was 61% and 61.2 ** %. Further, the “% Reduction TG (triglycerides)” value in experiment [1] was 52% and 52.1 ** %. Besides, the “Percent Interaction with DPPH” value in experiment [2] (compound 25 μM) stood at 15.5%; in experiment [2] (compound 50 μM), 31.8%; in experiment [2] (compound 100 μM), 58.0%; in experiment [2] (compound 200 μM), 90.9%. In addition, the inhibition in vivo at 150 µmol/kg in experiment [3] amounted to 52%. In addition, in experiment [4] (50 μM compound), the “Inhibition of Lipid Peroxidation, percent at 50 μM” value is reported as 20%/50 μM. The molecule also showed a pIC50 in experiment [5] of 4.10.
Turning to `CCOC(=O)C(COC(=O)C(C)c1cccc(C(=O)c2ccccc2)c1)NC(=O)c1cc(C(C)(C)C)c(O)c(C(C)(C)C)c1` (stereo not drawn) [Compound 11, Ethyl 3-((2-(3-benzoylphenyl)propanoyl)oxy)-2-(3,5-di-tert-butyl-4-hydroxybenzamido)propanoate], in experiment [1], the “% Reduction LDL-C (LDL cholesterol)” value is recorded as 51.2 ** %, the “% Reduction TC (total cholesterol)” value is listed as 57.6 ** % and the “% Reduction TG (triglycerides)” value was 44.5 * %. Also, the “Percent Interaction with DPPH” value in experiment [2] (compound 200 μM) is recorded as “lower than 10%”. In experiment [3], the inhibition in vivo at 150 µmol/kg was found to be 67%. Further, in experiment [4] (1 mM compound), the “Inhibition of Lipid Peroxidation, percent at 1 mM” value was found to be 30%/1 mM. This molecule also showed a pIC50 in experiment [5] of 4.07.
`CCOC(=O)C(COC(=O)C(C)c1cccc(C(=O)c2ccccc2)c1)NC(=O)/C=C/c1cc(C(C)(C)C)c(O)c(C(C)(C)C)c1` (stereo not drawn) [Compound 12, (E)-ethyl 3-((2-(3-benzoylphenyl)propanoyl)oxy)-2-(3-(3,5-di-tert-butyl-4-hydroxyphenyl)acrylamido)propanoate]: in experiment [1], the “% Reduction LDL-C (LDL cholesterol)” value is given as 56.2 * %. Besides, the “% Reduction TC (total cholesterol)” value in experiment [1] is recorded as 53.4 ** %. The “% Reduction TG (triglycerides)” value in experiment [1] is 33.2 * %. Also, the “Percent Interaction with DPPH” value in experiment [2] (compound 25 μM) is 20.0%; in experiment [2] (compound 50 μM), 24.7%; in experiment [2] (compound 100 μM), 53.8%; in experiment [2] (compound 200 μM), 94.0%. In experiment [3], the inhibition in vivo at 150 µmol/kg is 59%. Further, the “Inhibition of Lipid Peroxidation, percent at 100 μM” value in experiment [4] (100 μM compound) is 20%/100 μM. In experiment [5], the pIC50 is 4.05.
